Experimental data taken from patent publication US20190136188A1, “4HPR AND ITS USE IN THE CULTURING OF HEMATOPOIETIC STEM CELLS” (UNIVERSITY HEALTH NETWORK, priority 2016, published 2019).

Key:
[1] = system: sorted HSC, MPP or GMP; assay: Colony forming assay (CFC) in methylcellulose; format: cell-based, human
Protocol: (A) Dose response of varying [4HPR] in CB at day 3 post-treatment showing 2 uM 4HPR gives the relative half maximal number of viable cells compared to control. All experiments following are at this 4HPR concentration unless otherwise indicated. […] (C) LC/MS was used to profile the ceramide (Cer), dihydroceramide (dhCer), sphingosine (sph), dihydrosphingosine (dhSph), S1P and dihydro-S1P (dhS1P) levels in lin− CB cells cultured for 8 days with control or 4HPR (n=2). […] (D) HSC, MPP, or GMP were sorted into methylcellulose for CFC assays in the presence of control or 4HPR and colonies were blindly scored following 10-11 days for (D) colonies/100 cells and ((E) colony distribution are shown (n=7). (F) Flow cytometry for erythroid (GlyA+) and monocytic (CD14+) markers in live cells from pooled CFC colonies were scored (n=6). (F) Relative number of colonies from CFC assays comparing the effect of 4HPR or ATRA (n=3) on sorted HSC, MPP or GMP. […]
(§1) (A) Representative flow cytometry analysis of the primitive hierarchy within the CD34+ fraction of day 8 cultured lin− CB cells after the indicated treatments for CD90 and CD45RA, n=4. B) The distribution of cultured CD34+CD90+CD45RA− (cHSC), CD34+CD90−CD45RA− (cMPP), and […] for the indicated conditions at day 8 of ex vivo culture following CD34 enrichment. Statistical significance assayed through unpaired t-test relative to vehicle control (Ctrl). The relative number of colonies resulting from (C) HSC or (D) MPP grown in methylcellulose CFC assays in the presence of vehicle control (−) or the indicated combination of 2 uM 4HPR, or 35 nM UM171 or 0.5 uM SR1 at 10 days. Statistical significance is calculated via unpaired t-test relative to ctrl (black) or to the presence of absence of 4HPR treatment for UM171 or SR1.
However, the functional consequence of 4HPR treatment on human cord blood primitive cells is unknown. A dose titration of 4HPR was performed on lineage-depleted CB (lin-CB) cells and 2 uM was calculated to give half maximal cell viability at 3 days post-treatment compared to vehicle control (ctrl), a concentration reported in cell lines to antagonize DEGS1 enzymatic function, and used for all subsequent experiments unless otherwise indicated (FIG. 1A). […] Next, we utilized the colony forming assay (CFC) for in vitro progenitor function to determine if 4HPR treatment alters functional output from isolated populations of CB HSPC. […] This is unsurprising as retinoic acid signaling is a potent differentiation signal in hematopoietic cells. Thus, 4HPR inhibition of sphingolipid homeostasis selectively enhances cloning efficiency in human HSC.
Given the CD34 compartment where functional HSC should reside following ex vivo expansion is critical to blood production, we asked if there were immunophenotypic alterations following 4HPR treatment. StemRegenin-1 (SR1) or UM171 are two molecules whose action on CB has been reported to expand CD34+ cells dramatically and lead to increase reconstitution in xenotransplantation (Fares, et al Science, 2014: Boitano, Science, 2010). We sought to ask if limiting CD34+ expansion with 4HPR treatment is synergistic with these known agonists of CB ex vivo expansion. Lin− CB were cultured with these 3 small molecules alone or in combination for 8 days and the CD34 compartment was isolated and analyzed by flow cytometry further with CD90 and CD45RA to look at immunophenotypic cultured HSC (cHSC), MPP (cMPP) and committed progenitors (cProg). These populations were sorted from lin-CB at […] following expansion and transplanted into NSG mice for 16 weeks to ascertain that cProg cells are committed progenitors, while cHSC and cMPP retain multipotency following culture (FIG. 8A, B). […]

[2] = system: lin- CB cells; assay: 8 day ex vivo expansion culture of lin- CB, flow cytometry; format: cell-based, human
From the text: (A) Experimental scheme (B) Representative FACS analysis data of in vitro culture for 16 HSC dose time course (n=3). The number of (C) viable cells, (D) CD15+ myeloid cells, (E) GlyA+ erythroid cells, and (F) CD34+ primitive cells measured for the 16 LTRC dose with HTS flow cytometry analysis at day 8 post-treatment for vehicle control or 4HPR prior to xenotransplantation (n=5 biological replicates, 4 in technical triplicate, marked with different symbols). (G) Human CD45+ engraftment at 16 weeks post transplant in injected femur (n=4, 5 mice/biological experiment). Lineage analysis of control or 4HPR transplanted mice from FIG. 5G for (H) B lymphoid, (I) myeloid, (J) erythroid, and (K) primitive CD34+ at the 16 LTRC dose. (L) CD45+ cells were isolated from 5 biological experiments of the 16 LTRC dose primary mice and transplanted at limiting doses into secondary recipients for 16 weeks. Human CD45+ marking of >0.1% was considered positive for secondary engraftment. Limiting dilutation analysis was performed using ELDA software and the long-term repopulating cell (LTRC) frequency for each biological replicate plotted and the average LTRC frequency calculated.
as §1
(A) The number of cells following 8 days of ex vivo culture at the 16 LTRC dose grown as in FIG. 5A for the indicated drug treatments (n=2). […] (2 biological replicates) (E) CD45+ cells were isolated from 2 biological experiments of the 16 LTRC dose primary mice and transplanted at limiting doses into secondary recipients for 16 weeks. Human CD45+ marking of >0.01% was considered positive for secondary engraftment. Limiting dilutation analysis was performed using ELDA software and the long-term repopulating cell (LTRC) frequency for each biological replicate plotted and the average LTRC frequency calculated.
To determine if 4HPR preserves functional HSC in CB liquid culture, we devised an experimental protocol to test the effect of 4HPR treatment in short-term ex vivo expansion culture on repopulation in serial NSG xenotransplantation to functionally read out LT-HSC (FIG. 5A). Briefly, lin− CB (enriched for CD34+) is cultured ex vivo in an in vitro limiting dilution assay (LDA) fashion based on 3 initial cell doses with high (16 functional HSC or LTRC), medium (3.2 LTRC) and limiting (0.65 LTRC) in xenotransplantation. All expanded cells are unbiasly transplanted via intrafemoral injection into NSG mice after 8 days of culture where drug is added every 2 day and reconstitution is assayed 16 weeks following transplantation. […] Human CD45+ cells are isolated from primary mice transplanted with the 16 LTRC dose and serially transplanted in LDA fashion to enumerate functional HSC in the gold-standard for long-term repopulating cell (LTRC). Remarkably, 4HPR treated cells show a 3 fold increase in SRC over control treatment through 32 weeks of xenotransplantation with an average LTRC frequency of 1e6 CD45+ cells (FIG. 5L, n=5, p=0.02). […] Thus, 4HPR acts to preserve LT-HSC function in ex vivo expansion despite limiting total CD34+ cells during culture. […]

[3] = 8 days culture, 4HPR vs vehicle control

For `CC1=C(/C=C/C(C)=C/C=C/C(C)=C/C(=O)Nc2ccc(O)cc2)C(C)(C)CCC1` [4HPR, N-(4hydroxyphenyl)retinamide], the “relative cloning efficiency from HSC” value ([1]; 2 uM 4HPR in combination with either UM171 or SR1, to levels similar to 4HPR alone) was “increased relative cloning efficiency from HSC”, the “colony distribution (colony type)” value ([1]; HSC and MPP samples, 2 uM 4HPR) was “more likely to be granulocyte-macrophage (GM) colonies” and the “increase of colony output over control treatment” value ([1]; HSC, 2 uM 4HPR, colonies scored after 10-11 days) was 50%. The “increase of colony output over control treatment” value ([1]; MPP or GMP, 2 uM 4HPR) was “but not MPP or GMP”, the “myeloid (CD14) and erythroid (GlyA) output of cells from CFC assays” value ([1]; flow cytometry of pooled CFC colonies, 2 uM 4HPR) was “enhances myeloid output at the expense of erythroid differentiation” and the “erythroid differentiation in culture” value [2, 3] was “decreased erythroid differentiation”. The “immunophenotypic CD34+ cells in culture” value [2, 3] was “fewer immunophenotypic CD34+ cells”, the “myeloid differentiation in culture” value [2, 3] was “enhanced myeloid differentiation” and the “cHSC in the CD34 compartment” value ([2]; day 8, relative to control) was “trends to increasing cHSC”. The “cMPP in the CD34 compartment” value ([2]; day 8, relative to control) was “increasing cMPP”, the “percentage of cProg cells in the CD34 compartment” value ([2]; day 8, relative to control) was “significantly limits the percentage of (cProg) cells” and the “formation of cProg cells” value ([2]; lin- CB as well as HSC and MPP, dominant over UM171 or SR1 singularly and in combination) was “limits the formation of cProg cells”.
